The text below walks through data of US11021424B2, “Redox-active therapeutics for treatment of mitochondrial diseases and other conditions and modulation of energy biomarkers” (PTC THERAPEUTICS, INC., priority 2005, dated 2021).

Where two headings read alike, the source gives them in different places.

For this assay, the system named is FRDA fibroblasts. Nature of the assay: Rescue of FRDA fibroblasts stressed by L-buthionine-(S,R)-sulfoximine (BSO), viability by Calcein AM fluorescence. The class given is cell-based, human. The conditions noted are these: for EC50: BSO-stressed (1 mM) FRDA fibroblasts GM04078. The protocol: An initial screen was performed to identify compounds effective for the amelioration of redox disorders. Test samples, 4 reference compounds (idebenone, decylubiquinone, Trolox and α-tocopherol acetate), and solvent controls were tested for their ability to rescue FRDA fibroblasts stressed by addition of L-buthionine-(S,R)-sulfoximine (BSO), as described in Jauslin et al., Hum. Mol. Genet. 11(24):3055 (2002), Jauslin et al., FASEB J. 17:1972-4 (2003), and International Patent Application WO 2004/003565. […] This specific BSO-mediated cell death can be prevented by administration of antioxidants or molecules involved in the antioxidant pathway, such as α-tocopherol, short chain quinones, selenium, or small molecule glutathione peroxidase mimetics. However, antioxidants differ in their potency, i.e. the concentration at which they are able to rescue BSO-stressed FRDA fibroblasts. With this assay EC50 concentrations of the test compounds were determined and compared to known reference antioxidants.
MEM (a medium enriched in amino acids and vitamins, catalog no. 1-31F24-I) and Medium 199 (M199, catalog no. 1-21F224) with Earle's Balanced Salts, without phenol red, were purchased from Bioconcept. Fetal Calf Serum was obtained from PAA Laboratories. Basic fibroblast growth factor and epidermal growth factor were purchased from PeproTech. Penicillin-streptomycin-glutamine mix, L-buthionine (S,R)-sulfoximine, (+)-α-tocopherol acetate, decylubiquinone, and insulin from bovine pancreas were purchased from Sigma. Trolox (6-hydroxy-2,5,7,8-tetramethylchromane-2-carboxylic acid) was obtained from Fluka. Idebenone was obtained from Chemo Iberica. Calcein AM was purchased from Molecular Probes. Cell culture medium was made by combining 125 ml M199 EBS, 50 ml Fetal Calf Serum, 100 U/ml penicillin, 100 μg/ml streptomycin, 2 mM glutamine, 10 μg/ml insulin, 10 ng/ml EGF, and 10 ng/ml bFGF; MEM EBS was added to make the volume up to 500 ml. A 10 mM BSO solution was prepared by dissolving 444 mg BSO in 200 ml of medium with subsequent filter-sterilization. During the course of the experiments, this solution was stored at +4° C. The cells were obtained from the Coriell Cell Repositories (Camden, N.J.; repository number GM04078) and grown in 10 cm tissue culture plates. Every third day, they were split at a 1:3 ratio.
The test samples were supplied in 1.5 ml glass vials. The compounds were diluted with DMSO, ethanol or PBS to result in a 5 mM stock solution. Once dissolved, they were stored at −20° C. Reference antioxidants (idebenone, decylubiquinone, α-tocopherol acetate and trolox) were dissolved in DMSO.
Test samples were screened according to the following protocol: A culture with FRDA fibroblasts was started from a 1 ml vial with approximately 500,000 cells stored in liquid nitrogen. Cells were propagated in 10 cm cell culture dishes by splitting every third day in a ratio of 1:3 until nine plates were available. Once confluent, fibroblasts were harvested. For 54 micro titer plates (96 well-MTP) a total of 14.3 million cells (passage eight) were re-suspended in 480 ml medium, corresponding to 100 μl medium with 3,000 cells/well. The remaining cells were distributed in 10 cm cell culture plates (500,000 cells/plate) for propagation. The plates were incubated overnight at 37° C. in a atmosphere with 95% humidity and 5% CO2 to allow attachment of the cells to the culture plate.
MTP medium (243 μl) was added to a well of the microtiter plate. The test compounds were unfrozen, and 7.5 μl of a 5 mM stock solution was dissolved in the well containing 243 μl medium, resulting in a 150 μM master solution. Serial dilutions from the master solution were made. The period between the single dilution steps was kept as short as possible (generally less than 1 second).
Plates were kept overnight in the cell culture incubator. The next day, 10 μl of a 10 mM BSO solution were added to the wells, resulting in a 1 mM final BSO concentration. […]

For the compound `CC(=O)Oc1c(C)c(C)c2c(c1C)CC[C@@](C)(CCC[C@H](C)CCC[C@H](C)CCCC(C)C)O2` [α-tocopherol acetate, (+)-α-tocopherol acetate, reference compound], the EC50 reads like this: (average of three experiments, read-out: EC50 Average) 300 nM; (first of three experiments, read-out: EC50 Value 1) 400 nM; (second of three experiments, read-out: EC50 Value 2) 150 nM; (third of three experiments, read-out: EC50 Value 3) 350 nM.
Consider `CC1=C(C)C(=O)C(CC[C@](C)(O)CCC[C@H](C)CCC[C@H](C)CCCC(C)C)=C(C)C1=O` [α-tocopherol quinone, 2-[(3R,7R,11R)-3-hydroxy-3,7,11,15-tetramethylhexadecyl]-3,5,6-trimethyl-2,5-cyclohexadiene-1,4-dione], for which the EC50 reads like this: (Homo sapiens, average of three experiments, read-out: EC50 Average) 0.0014 nM; (Homo sapiens, first of three experiments, read-out: EC50 Value 1) 0.001 nM; (Homo sapiens, second of three experiments, read-out: EC50 Value 2) 0.003 nM. Also, the “EC50 fold lower than alpha-D-tocopherol” value (human cell culture model of FRDA, relative to alpha-D-tocopherol) was 10^4 fold. Moreover, the “EC50 fold lower than idebenone” value (human cell culture models of FRDA, relative to idebenone) is on record as 10^5 fold.

A word on the EC50: it is the concentration needed to bring the measured effect to its halfway point.
